This note sets out measurements from patent publication US8895745B2, “Bicyclic heterocyclic compounds as FGFR inhibitors” (Astex Therapeutics Limited, priority 2006, dated 2014).

Counter-ions that a name gives are not always drawn.

One assay deals with LP-1 cell line. The experiment in a line: Cell-based pERK ELISA method, LP-1 cells. The settings on record: Homo sapiens, LP-1, read-out: IC50 less than 1 μM or at least 50% inhibition at a concentration of 1 μM, LP-1 pERK ELISA. (An ELISA detects its analyte on a solid surface through an enzyme-linked reagent.)
Regarding `CN(C)S(=O)(=O)n1cc(-c2ccn3c(-c4cccc(NC(=O)NCC(F)(F)F)c4)cnc3c2)cn1` [Example 262, 4-(3-{3-[3-(2,2,2-Trifluoro-ethyl)-ureido]-phenyl}-imidazo[1,2-a]pyridin-7-yl)-pyrazole-1-sulfonic acid dimethylamide], the IC50 is under 1 µM. Turning to `CC(=O)Nc1cccc(-c2cnc3cc(-c4ccncc4)ccn23)c1` [Example 6, N-[3-(7-Pyridin-4-yl-imidazo[1,2-a]pyridin-3-yl)-phenyl]-acetamide], the IC50 was under 1 µM. In the case of `COc1cc(NC(C)=O)cc(-c2cnc3cc(-c4cccc(CN5CCOCC5)c4)ccn23)c1` [Example 78, N-{3-Methoxy-5-[7-(3-morpholin-4-ylmethyl-phenyl)-imidazo[1,2-a]pyridin-3-yl]-phenyl}-acetamide], the IC50 was under 1 µM. On to `O=C(NCC(F)(F)F)Nc1cccc(-c2cnc3cc(N4CCC4)ccn23)c1` [Example 202, 1-[3-(7-Azetidin-1-yl-imidazo[1,2-a]pyridin-3-yl)-phenyl]-3-(2,2,2-trifluoro-ethyl)-urea], for which the IC50 is under 1 µM. On the same count and under the same terms, next, `O=C(NCC(F)(F)F)Nc1ccc(F)c(-c2cnc3cc(-c4ccc(F)cc4)ccn23)c1` [Example 253, 1-{4-Fluoro-3-[7-(4-fluoro-phenyl)-imidazo[1,2-a]pyridin-3-yl]-phenyl}-3-(2,2,2-trifluoro-ethyl)-urea]: under 1 µM. The same measure, in the same setting: to `Cn1c(-c2ccn3c(-c4cccc(NC(=O)NCC(F)(F)F)c4)cnc3c2)n[nH]c1=S` [Example 332, 1-{3-[7-(4-Methyl-5-thioxo-4,5-dihydro-1H-[1,2,4]triazol-3-yl)-imidazo[1,2-a]pyridin-3-yl]-phenyl}-3-(2,2,2-trifluoro-ethyl)-urea] belongs under 1 µM; to `CN(C)C(=O)/C=C/c1ccn2c(-c3cccc(NC(=O)NCC(F)(F)F)c3)cnc2c1` [Example 345, (E)-N,N-Dimethyl-3-(3-{3-[3-(2,2,2-trifluoro-ethyl)-ureido]-phenyl}-imidazo[1,2-a]pyridin-7-yl)-acrylamide], under 1 µM; to `Cc1nc(-c2ccn3c(-c4cccc(NC(=O)NCC(F)(F)F)c4)cnc3c2)cs1` [Example 348, 1-{3-[7-(2-Methyl-thiazol-4-yl)-imidazo[1,2-a]pyridin-3-yl]-phenyl}-3-(2,2,2-trifluoro-ethyl)-urea], under 1 µM. `COc1ccn2c(-c3cccc(NC(=O)NCC(F)(F)F)c3)cnc2c1` [Example 336, 1-[3-(7-Methoxy-imidazo[1,2-a]pyridin-3-yl)-phenyl]-3-(2,2,2-trifluoro-ethyl)-urea Formate]: the IC50 was under 1 µM. Consider `CCNC(=O)Nc1cccc(-c2cnc3cc(-c4ccc(CCN5CCOCC5)cc4)ccn23)c1` [Example 56, 1-Ethyl-3-(3-{7-[4-(2-morpholin-4-yl-ethyl)-phenyl]-imidazo[1,2-a]pyridin-3-yl}-phenyl)-urea hydro-chloride salt], for which the IC50 is under 1 µM. On the same count and under the same terms, next, `CCNC(=O)Nc1cccc(-c2cnc3cc(-c4cccc(CN5CCCCC5)c4)ccn23)c1` [Example 35, 1-Ethyl-3-{3-[7-(3-piperidin-1-ylmethyl-phenyl)-imidazo[1,2-a]pyridin-3-yl]-phenyl}-urea]: under 1 µM.

Turning to `CCNC(=O)Nc1cccc(-c2cnc3cc(-c4cccc(CN5CCN(C)CC5)c4)ccn23)c1` [Example 227], the IC50 is under 1 µM. In the case of `CCNC(=O)Nc1cccc(-c2cnc3cc(-c4ccc(NCCN5CCOCC5)nc4)ccn23)c1` [Example 109, 1-Ethyl-3-(3-{7-[6-(2-morpholin-4-yl-ethylamino)-pyridin-3-yl]-imidazo[1,2-a]pyridin-3-yl}-phenyl)-urea hydro-chloride salt], the IC50 is under 1 µM. The same measure, in the same setting: to `O=C(NCC(F)F)Nc1cccc(-c2cnc3cc(-c4ccc(F)cc4)ccn23)c1` [Example 229, 1-(2,2-Difluoro-ethyl)-3-{3-[7-(4-fluoro-phenyl)-imidazo[1,2-a]pyridin-3-yl]-phenyl}-urea Hydrochloride] belongs under 1 µM. Still for that read-out and setting: next, `CCNC(=O)Nc1cccc(-c2cnn3cc(-c4ccc(N)nc4)cnc23)c1` [Example 114, 1-{3-[6-(6-Amino-pyridin-3-yl)-pyrazolo[1,5-a]pyrimidin-3-yl]-phenyl}-3-ethyl-urea hydrochloride salt]: under 1 µM; `COc1ccc(-c2ccn3c(-c4cccc(NC(=O)NCC(F)(F)F)c4)cnc3c2)cc1` [Example 271, 1-{3-[7-(4-Methoxy-phenyl)-imidazo[1,2-a]pyridin-3-yl]-phenyl}-3-(2,2,2-trifluoro-ethyl)-urea]: under 1 µM.

As for `CCNC(=O)Nc1cc(-c2cnc3cc(-c4ccc(F)cc4)ccn23)ccc1F` [Example 266, 1-Ethyl-3-{2-fluoro-5-[7-(4-fluoro-phenyl)-imidazo[1,2-a]pyridin-3-yl]-phenyl}-urea], the IC50 is under 1 µM. The same measure, in the same setting: next, `CC(=O)Nc1cccc(-c2cnc3cc(-c4ccccc4)ccn23)c1` [Example 2, N-[3-(7-Phenyl-imidazo[1,2-a]pyridin-3-yl)-phenyl]-acetamide hydro-chloride salt]: under 1 µM. Still for that read-out and setting: to `CCNC(=O)Nc1cccc(-c2cnc3cc(-c4ccc(N5CCOCC5)nc4)ccn23)c1` [Example 49, 1-Ethyl-3-{3-[7-(6-morpholin-4-yl-pyridin-3-yl)-imidazo[1,2-a]pyridin-3-yl]-phenyl}-urea formate salt] belongs under 1 µM; to `CCS(=O)(=O)N1CCN(c2ccn3c(-c4cccc(NC(=O)NCC(F)(F)F)c4)cnc3c2)CC1` [Example 177, 1-{3-[7-(4-Ethanesulfonyl-piperazin-1-yl)-imidazo[1,2-a]pyridin-3-yl]-phenyl}-3-(2,2,2-trifluoro-ethyl)-urea hydrochloride salt], under 1 µM; to `COc1cc(-c2ccn3c(-c4cccc(NC(=O)NCC(F)(F)F)c4)cnc3c2)ccc1F` [Example 142, 1-{3-[7-(4-Fluoro-3-methoxy-phenyl)-imidazo[1,2-a]pyridin-3-yl]-phenyl}-3-(2,2,2-trifluoro-ethyl)-urea Hydrochloride], under 1 µM. Same read-out and setting: to `CC(=O)Nc1cc(C#N)cc(-c2cnc3cc(-c4cccc(CN5CCOCC5)c4)ccn23)c1` [Example 28, N-{3-Cyano-5-[7-(3-morpholin-4-ylmethyl-phenyl)-imidazo[1,2-a]pyridin-3-yl]-phenyl}-acetamide] belongs under 1 µM; to `CC(=O)Nc1cccc(-c2cnc3cc(-c4cccc(CC(=O)O)c4)ccn23)c1` [Example 11, {3-[3-(3-Acetylamino-phenyl)-imidazo[1,2-a]pyridin-7-yl]-phenyl}-acetic acid], under 1 µM; to `CC(=O)N1CCC(Oc2cccc(-c3ccn4c(-c5cccc(NC(=O)NCC(F)(F)F)c5)cnc4c3)c2)CC1` [Example 193, 1-(3-{7-[3-(1-Acetyl-piperidin-4-yloxy)-phenyl]-imidazo[1,2-a]pyridin-3-yl}-phenyl)-3-(2,2,2-trifluoro-ethyl)-urea Formate], under 1 µM. As for `CCNC(=O)Nc1cccc(-c2cnc3cc(-c4cnn(C)c4)ccn23)c1` [Example 94, 1-Ethyl-3-{3-[7-(1-methyl-1H-pyrazol-4-yl)-imidazo[1,2-a]pyridin-3-yl]-phenyl}-urea], the IC50 was under 1 µM. On the same count and under the same terms, next, `Cc1ccn2c(-c3cccc(NC(=O)NCC(F)(F)F)c3)cnc2c1` [Example 225]: under 1 µM; `COC(=O)Nc1cccc(-c2cnc3cc(-c4ccc(F)cc4)ccn23)c1` [Example 16, {3-[7-(4-Fluoro-phenyl)-imidazo[1,2-a]pyridin-3-yl]-phenyl}-carbamic acid methyl ester formate salt]: under 1 µM; `O=C(NCC(F)(F)F)Nc1cccc(-c2cnc3cc(-c4cccc(C(=O)N5CCC5)c4)ccn23)c1` [Example 264, 1-(3-{7-[3- (Azetidine 1-carbonyl)-phenyl]-imidazo[1,2-a]pyridin-3-yl}-phenyl)-3-(2,2,2-trifluoro-ethyl)-urea]: under 1 µM. Regarding `CN1CCN(C(=O)c2cccc(-c3ccn4c(-c5cccc(NC(=O)NCC(F)(F)F)c5)cnc4c3)c2)CC1` [Example 220, 1-(3-{7-[3-(4-Methyl-piperazine-1-carbonyl)-phenyl]-imidazo[1,2-a]pyridin-3-yl}-phenyl)-3-(2,2,2-trifluoro-ethyl)-urea], the IC50 is under 1 µM.

As to `O=C(NCC(F)(F)F)Nc1cccc(-c2cnc3cc(-c4cccc(OC5CCNCC5)c4)ccn23)c1` [Example 200, 1-(3-{7-[3-(Piperidin-4-yloxy)-phenyl]-imidazo[1,2-a]pyridin-3-yl}-phenyl)-3-(2,2,2-trifluoro-ethyl)-urea], the IC50 was under 1 µM. The same measure, in the same setting: to `COc1cccc(-c2ccn3c(-c4cccc(NC(=O)NCC(F)(F)F)c4)cnc3c2)c1` [Example 279, 1-{3-[7-(3-Methoxy-phenyl)-imidazo[1,2-a]pyridin-3-yl]-phenyl}-3-(2,2,2-trifluoro-ethyl)-urea] belongs under 1 µM.

The same assay, now with this note: Homo sapiens, LP-1, read-out: LP-1 pERK ELISA (μM).
For the molecule `CSc1nnc(-c2ccn3c(-c4cccc(NC(=O)NCC(F)(F)F)c4)cnc3c2)o1` [Example 354, 1-{3-[7-(5-Methylsulfanyl-[1,3,4]oxadiazol-2-yl)-imidazo[1,2-a]pyridin-3-yl]-phenyl}-3-(2,2,2-trifluoro-ethyl)-urea], the IC50 was 0.0157 µM. Still for that read-out and setting: next, `Cn1nnc(-c2ccn3c(-c4cccc(NC(=O)NCC(F)(F)F)c4)cnc3c2)n1` [Example 359, 1-{3-[7-(2-Methyl-2H-tetrazol-5-yl)-imidazo[1,2-a]pyridin-3-yl]-phenyl}-3-(2,2,2-trifluoro-ethyl)-urea]: 0.033 µM; `Cc1nnc(-c2ccn3c(-c4cccc(NC(=O)NCC(F)(F)F)c4)cnc3c2)s1` [Example 310, 1-{3-[7-(5-Methyl-[1,3,4]-thiadiazol-2-yl)-imidazo[1,2-a]pyridin-3-yl]-phenyl}-3-(2,2,2-trifluoro-ethyl)-urea]: 0.0042 µM. On the same count and under the same terms, next, `O=C(NCC(F)(F)F)Nc1cccc(-c2cnc3cc(-c4nncs4)ccn23)c1` [Example 384, 1-[3-(7-[1,3,4]Thiadiazol-2-yl-imidazo[1,2-a]pyridin-3-yl)-phenyl]-3-(2,2,2-trifluoro-ethyl)-urea]: 0.019 µM.
